For `C[C@@H](c1ccccc1)n1c(O)nc2c(N)nc3ccccc3c21` [Example 5, 4-Amino-1-[(1S)-1-phenylethyl]-1H-imidazo[4,5-c]quinolin-2-ol], the melting point (usually the temperature, or range, at which the solid turns liquid) lay within 292 to 295 °C.

`COc1nc2c(N)nc3ccccc3c2n1Cc1ccccc1` [Example 7, 1-Benzyl-2-methoxy-1H-imidazo[4,5-c]quinolin-4-amine] had a melting point of 240 to 242 °C.

The values are drawn from US8377957B2, “Hydroxy and alkoxy substituted 1H-imidazoquinolines and methods” (3M Innovative Properties Company, priority 2005, dated 2013).
